This passage reports IC50 results from patent US20260132132A1, “3A,4,5,6-TETRAHYDRO-1 H-PYRAZOLO[3,4-C]PYRIDIN-7(7AH)-ONE DERIVATIVES AS FACTOR XIIA INHIBITORS” (KALVISTA PHARMACEUTICALS LIMITED, priority 2022, published 2026).

pIC50: −log10 of the molar value.

The target in assay [1] is T1, Human Factor XIIa (hFXIIa) (Homo sapiens, UniProt P00748).
T1 construct: purchased Enzyme Research Laboratories
T1 sequence (P00748 373-615 limits assumed): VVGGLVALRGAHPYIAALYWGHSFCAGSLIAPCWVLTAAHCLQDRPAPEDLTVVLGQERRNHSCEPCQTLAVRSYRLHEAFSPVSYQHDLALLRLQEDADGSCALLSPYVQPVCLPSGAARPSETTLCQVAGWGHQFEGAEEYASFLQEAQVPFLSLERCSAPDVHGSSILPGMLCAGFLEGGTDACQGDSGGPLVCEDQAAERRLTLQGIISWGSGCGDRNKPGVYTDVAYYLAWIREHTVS
T1 sequence (P00748 20-372 partner limits assumed): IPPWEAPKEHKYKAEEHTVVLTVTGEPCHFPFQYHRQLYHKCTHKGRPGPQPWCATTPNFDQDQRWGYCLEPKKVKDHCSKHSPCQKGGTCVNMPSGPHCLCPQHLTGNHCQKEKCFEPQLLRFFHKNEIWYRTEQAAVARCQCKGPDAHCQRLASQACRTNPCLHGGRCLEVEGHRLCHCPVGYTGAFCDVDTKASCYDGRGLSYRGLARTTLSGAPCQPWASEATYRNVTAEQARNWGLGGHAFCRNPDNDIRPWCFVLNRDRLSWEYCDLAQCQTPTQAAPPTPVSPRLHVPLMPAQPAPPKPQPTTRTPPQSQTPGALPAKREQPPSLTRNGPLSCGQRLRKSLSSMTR
Put plainly: Determination of Human Factor XIIa (hFXIIa) inhibition, fluorogenic substrate IC50 assay. The class given is biochemical. Particulars: fluorogenic substrate H-DPro-Phe-Arg-AFC at Km, 25° C., read-out: Human FXIIa IC50. The protocol:
Determination of Human Factor XIIa (hFXIIa) inhibition
The Km for the cleavage of the substrate by hFXIIa was determined by standard transformation of the Michaelis-Menten equation, with subsequent inhibition assays performed at substrate Km concentration.

The next assay addresses FXa (Homo sapiens, UniProt P00742). As to the kind of experiment: Related protease inhibition: FXa, fluorogenic substrate. As to conditions: fluorogenic substrate at Km, 25° C.; H1-H3 = % activity at 40 μM. In kind it is biochemical. How it is done: Human serine protease enzyme Plasma Kallikrein, KLK1, FXa, Plasmin, Thrombin and Trypsin were assayed for enzymatic activity using an appropriate fluorogenic substrate at Km concentration, FXIa at fixed substrate concentration of 100 μM and various concentrations of the test compound.

Sequence of FXa (P00742 235-488 limits assumed): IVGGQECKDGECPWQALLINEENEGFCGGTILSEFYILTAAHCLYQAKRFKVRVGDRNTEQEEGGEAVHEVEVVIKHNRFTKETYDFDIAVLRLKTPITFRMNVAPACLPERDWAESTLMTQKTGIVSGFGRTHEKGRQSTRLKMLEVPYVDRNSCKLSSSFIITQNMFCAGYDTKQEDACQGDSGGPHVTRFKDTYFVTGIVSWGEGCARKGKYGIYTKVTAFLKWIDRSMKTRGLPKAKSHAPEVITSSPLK
Sequence of FXa (P00742 41-179 partner limits assumed): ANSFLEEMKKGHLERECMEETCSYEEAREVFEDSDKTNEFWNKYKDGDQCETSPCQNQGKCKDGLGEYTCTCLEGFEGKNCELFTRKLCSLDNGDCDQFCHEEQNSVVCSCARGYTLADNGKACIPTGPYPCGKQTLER

The term pIC50 denotes −log10 of the IC50, conventionally taken in molar units. Take `Cc1cc(CNC(=O)c2nn(-c3cccc(Cl)c3)c3c2CCN(c2ccc4c(c2)CN(CCO)CC4)C3=O)[nH]n1` [Example 1077, 1-(3-chlorophenyl)-6-(2-(2-hydroxyethyl)-1,2,3,4-tetrahydroisoquinolin-7-yl)-N-((3-methyl-1H-pyrazol-5-yl)methyl)-7-oxo-4,5,6,7-tetrahydro-1H-pyrazolo[3,4-c]pyridine-3-carboxamide]: the negative-log IC50 (pIC50) in assay [1] was 7.00 to 8.00; against FXa it was 5.00 to 5.52.

On to `CCN1CCc2ccc(N3CCc4c(C(=O)NCc5ccccc5)nn(-c5cccc(Cl)c5)c4C3=O)cc2C1` [Example 1021, N-benzyl-1-(3-chlorophenyl)-6-(2-ethyl-1,2,3,4-tetrahydroisoquinolin-7-yl)-7-oxo-4,5,6,7-tetrahydro-1H-pyrazolo[3,4-c]pyridine-3-carboxamide], for which the results for the pIC50 (in assay [1]; at FXa) were 7.00 to 8.00 and 5.00 to 5.52, respectively.

With `CCOC(=O)c1nn(-c2cccc(Cl)c2)c2c1CCN(c1cccc(CN3CCCCC3)c1)C2=O` [Example 1007, ethyl 1-(3-chlorophenyl)-7-oxo-6-(3-(piperidin-1-ylmethyl)phenyl)-4,5,6,7-tetrahydro-1H-pyrazolo[3,4-c]pyridine-3-carboxylate], the values for the pIC50 (in assay [1]; against FXa) were 6.52 to 7.00 and 4.40 to 5.00, respectively.

With `CCN1CCc2cc(F)c(N3CCc4c(C(=O)NCc5cc(C6CC6)n[nH]5)nn(-c5cccc(Cl)c5)c4C3=O)cc2C1` [Example 1234, 1-(3-chlorophenyl)-N-((3-cyclopropyl-1H-pyrazol-5-yl)methyl)-6-(2-ethyl-6-fluoro-1,2,3,4-tetrahydroisoquinolin-7-yl)-7-oxo-4,5,6,7-tetrahydro-1H-pyrazolo[3,4-c]pyridine-3-carboxamide], the pIC50 in assay [1] is 7.00 to 8.00; against FXa, 5.00 to 5.52.

As for `O=C(OCc1ccccc1)c1nn(-c2cccc(Cl)c2)c2c1CCN(c1cccc(CN3CCCCC3)c1)C2=O` [Example 1006, benzyl 1-(3-chlorophenyl)-7-oxo-6-(3-(piperidin-1-ylmethyl)phenyl)-4,5,6,7-tetrahydro-1H-pyrazolo[3,4-c]pyridine-3-carboxylate], the pIC50 in assay [1] is 6.00 to 6.52; on FXa it was 4.40 to 5.00.

Regarding `O=C(NCC1CC1)c1nn(-c2cccc(Cl)c2)c2c1CCN(c1cccc(N3CCCCC3=O)c1)C2=O` [Example 1285, 1-(3-chlorophenyl)-N-(cyclopropylmethyl)-7-oxo-6-(3-(2-oxopiperidin-1-yl)phenyl)-4,5,6,7-tetrahydro-1H-pyrazolo[3,4-c]pyridine-3-carboxamide], the pIC50 in assay [1] was 5.52 to 6.00; on FXa it was below 4.40.

Turning to `Cc1cc(CNC(=O)c2nn(-c3cccc(Cl)c3)c3c2CCN(c2ccc4c(c2)C(=O)N(C)CC4)C3=O)n[nH]1` [Example 1200, 1-(3-chlorophenyl)-6-(2-methyl-1-oxo-1,2,3,4-tetrahydroisoquinolin-7-yl)-N-((5-methyl-1H-pyrazol-3-yl)methyl)-7-oxo-4,5,6,7-tetrahydro-1H-pyrazolo[3,4-c]pyridine-3-carboxamide], the negative-log IC50 (pIC50) in assay [1] is 6.52 to 7.00; against FXa, 4.40 to 5.00.

Turning to `Cc1cc(CNC(=O)c2nn(-c3cccc(Cl)c3)c3c2CCN(c2ccc4c(c2)C(=O)N(CC(=O)O)CC4)C3=O)nn1C` [Example 1331, 2-(7-(1-(3-chlorophenyl)-3-(((1,5-dimethyl-1H-pyrazol-3-yl)methyl)carbamoyl)-7-oxo-1,4,5,7-tetrahydro-6H-pyrazolo[3,4-c]pyridin-6-yl)-1-oxo-3,4-dihydroisoquinolin-2(1H)-yl)acetic acid], the figures for the pIC50 (in assay [1]; against FXa) were 6.00 to 6.52 and below 5.40, respectively.

With `Cc1cc(C)c(CNC(=O)c2nn(-c3cccc(Cl)c3)c3c2CCN(c2ccc4c(c2)C(=O)N(CCO)CC4)C3=O)cn1` [Example 1256, 1-(3-chlorophenyl)-N-((4,6-dimethylpyridin-3-yl)methyl)-6-(2-(2-hydroxyethyl)-1-oxo-1,2,3,4-tetrahydroisoquinolin-7-yl)-7-oxo-4,5,6,7-tetrahydro-1H-pyrazolo[3,4-c]pyridine-3-carboxamide], the pIC50 is 7.00 to 8.00 in assay [1] and below 4.40 against FXa.

As for `COc1ccc(CNC(=O)c2nn(-c3cccc(Cl)c3)c3c2CCN(c2ccc4c(c2)CN(CCO)CC4)C3=O)cn1` [Example 1138, 1-(3-chlorophenyl)-6-(2-(2-hydroxyethyl)-1,2,3,4-tetrahydroisoquinolin-7-yl)-N-((6-methoxypyridin-3-yl)methyl)-7-oxo-4,5,6,7-tetrahydro-1H-pyrazolo[3,4-c]pyridine-3-carboxamide], the pIC50 in assay [1] is 7.00 to 8.00; on FXa, 5.00 to 5.52.

For the molecule `C[C@@H](CO)NC(=O)c1nn(-c2cccc(Cl)c2)c2c1CCN(c1ccc3c(c1)C(=O)N(C)CC3)C2=O` [Example 1344, (S)-1-(3-chlorophenyl)-N-(1-hydroxypropan-2-yl)-6-(2-methyl-1-oxo-1,2,3,4-tetrahydroisoquinolin-7-yl)-7-oxo-4,5,6,7-tetrahydro-1H-pyrazolo[3,4-c]pyridine-3-carboxamide], the pIC50 in assay [1] was 6.00 to 6.52; at FXa it was 4.40 to 5.00.

`CCN1CCc2ccc(N3CCc4c(C(=O)NCC5CC5)nn(-c5cccc(Cl)c5)c4C3=O)cc2C1` [Example 1031, 1-(3-chlorophenyl)-N-(cyclopropylmethyl)-6-(2-ethyl-1,2,3,4-tetrahydroisoquinolin-7-yl)-7-oxo-4,5,6,7-tetrahydro-1H-pyrazolo[3,4-c]pyridine-3-carboxamide]: the pIC50 in assay [1] is 6.52 to 7.00; on FXa, 4.40 to 5.00.

For the molecule `Cc1cc(CNC(=O)c2nn(-c3cccc(Cl)c3)c3c2CN(c2ccc4c(c2)CN(CCO)CC4)C3=O)nn1C` [Example 4001, 1-(3-Chlorophenyl)-N-[(1,5-dimethylpyrazol-3-yl)methyl]-5-[2-(2-hydroxyethyl)-3,4-dihydro-1H-isoquinolin-7-yl]-6-oxo-4H-pyrrolo[3,4-c]pyrazole-3-carboxamide], the pIC50 in assay [1] is 5.00 to 5.52; against FXa, below 4.40.

For the molecule `Cc1cc(CN)cc(-n2nc(C(=O)O)c3c2C(=O)N(c2ccc4c(c2)C(=O)N(C)CC4)CC3)c1` [Example 2025, 1-(3-(aminomethyl)-5-methylphenyl)-6-(2-methyl-1-oxo-1,2,3,4-tetrahydroisoquinolin-7-yl)-7-oxo-4,5,6,7-tetrahydro-1H-pyrazolo[3,4-c]pyridine-3-carboxylic acid], the pIC50 in assay [1] is 7.00 to 8.00; against FXa it was 4.40 to 5.00.

With `CN1CCc2ccc(N3CCc4c(C(=O)N[C@H](CO)c5ccccc5)nn(-c5cccc(Cl)c5)c4C3=O)cc2C1=O` [Example 1307, (S)-1-(3-chlorophenyl)-N-(2-hydroxy-1-phenylethyl)-6-(2-methyl-1-oxo-1,2,3,4-tetrahydroisoquinolin-7-yl)-7-oxo-4,5,6,7-tetrahydro-1H-pyrazolo[3,4-c]pyridine-3-carboxamide], the pIC50 in assay [1] is 6.52 to 7.00; on FXa, below 4.40.

Consider `Cc1nnc(CNC(=O)c2nn(-c3cccc(Cl)c3)c3c2CCN(c2ccc4c(c2)C(=O)N(C)CC4)C3=O)s1` [Example 1181, 1-(3-chlorophenyl)-N-((5-methyl-1,3,4-thiadiazol-2-yl)methyl)-6-(2-methyl-1-oxo-1,2,3,4-tetrahydroisoquinolin-7-yl)-7-oxo-4,5,6,7-tetrahydro-1H-pyrazolo[3,4-c]pyridine-3-carboxamide], for which the pIC50 was 6.00 to 6.52 in assay [1] and below 4.40 at FXa.
